{
  "source": "paper PMC10076643",
  "about": "“Design, synthesis and anticancer activity studies of 3-(coumarin-3-yl)-acrolein derivatives: Evidenced by integrating network pharmacology and vitro assay” (Frontiers in Pharmacology, 2023)",
  "key": {"[1]": {"system": "A549 (human lung cancer cell line)", "assay": "MTT antiproliferative assay, A549", "type": "cell-based", "details": "Homo sapiens, A549; MTT, 72 h", "description": "(§1) All the synthesized compounds were screened for in vitro antiproliferative activity against four human cancer cell lines A549 (human lung cancer cell line), KB (human oral epidermoid carcinoma cell line), Hela (human cervical carcinoma cell line), MCF-7 (human breast cancer cell line) and two human normal cell lines HUVEC (human umbilical vein endothelial cell) and LO2 (human normal hepatocytes) through the 3-(4,5-dimethyl-2-thiazolyl)-2,5-diphenyl-2-H-tetrazolium bromide (MTT) assay.\n(§2) Non-small-cell lung cancer (A549), oral epidermoid carcinoma (KB), cervical cancer (Hela) and breast cancer (MCF-7) cells were purchased from the American Type Culture Collection (ATCC, America). Human umbilical vein endothelial cell (HUVEC) and human normal hepatocytes (LO2) cells were provided by Guangzhou Medical University (Guangzhou, China). A549 and KB cells were cultured in RMPI-1640 medium (Gibco, America). Hela, MCF-7 and LO2 cells were cultured in DMEM medium (Gibco, America). HUVEC cells were cultured in Ham’s F-12K medium (Gibco, America). All the mediums were supplemented with 10% fetal bovine serum (FBS) (BI, State of Israel), 100 U/mL penicillin and 100 μg/mL streptomycin (Gibco, America), and all the cells were incubated in a sterile incubator at 37°C in an environment of 5% CO2. The tested compounds were dissolved in dimethyl sulfoxide (DMSO) at a concentration of 10 mM, and then diluted into different concentration of solutions by culture medium. The final concentration of DMSO was <0.01% (v/v) in all drug treatment groups to avoid the toxicity in the biological system. Untreated cells were used as a blank control and 5-fluorouracil treated cells were used as a positive control.\n(§3) The incubated tumor cells were planted into 96-well plates (4×10^3 cells/well). After 24 h, the cells were adherent to the wall and treated with the compound 6e in different concentrations (0.78, 1.56, 3.12, 6.25, 12.50, 25.00, and 50.00 μM) for 72 h. Afterwards, the medium was supplemented with 10 µL MTT solution. After 4 h, the culture medium was removed and 100 µL DMSO was added. The absorbance was determined at the wavelength of 540 nm and 655 nm using a microplate reader (BioTek Epoch, America). The results were collected from three independent experiments. The IC50 was then calculated by using GraphPad Prism Software (version 7.0) and non-linear regression (curve fit)."}, "[2]": {"system": "KB (human oral epidermoid carcinoma cell line)", "assay": "MTT antiproliferative assay, KB", "type": "cell-based", "description": "as §1, §2, §3"}, "[3]": {"system": "HUVEC (human umbilical vein endothelial cell)", "assay": "MTT antiproliferative assay, HUVEC normal cells", "type": "cell-based", "details": "72 h", "description": "as §1, §2, §3"}, "KB cells [4]": {"system": "KB cells", "assay": "Transwell migration assay", "type": "cell-based, human", "details": "2 IC50, 48 h", "procedure": "Wound healing assay and transwell assay were performed to investigate the effect of compound 6e on the migratory capability of KB cells.\nInitially, KB cells (5×10^4 cells/well) were suspended in 200 μL of the FBS-free medium. Each upper chamber contained the vehicle and various concentrations of compound 6e (0.5 IC50, IC50, 2 IC50). Each lower chamber was filled with 600 μL of medium containing 10% FBS. After incubation at 37°C for 48 h, the cells upon the transwell membrane were removed with a cotton tip. The cells trapped on the bottom side of the membrane were fixed with methanol for 1 h and stained with crystal violet solution for 2 h. Subsequently, the chambers thoroughly washed with PBS. The migrated cells were then imaged with the inverted fluorescence microscope (Leica DMi8, Germany) and counted with ImageJ software for three independent fields randomly."}, "KB cells [5]": {"system": "KB cells", "assay": "Annexin V-FITC/PI dual staining apoptosis assay (flow cytometry)", "type": "cell-based, human", "procedure": "To investigate whether compound 6e could induce cell apoptosis, KB cells were treated with compound 6e in different concentrations for 48 h and the Annexin V-FITC/PI dual staining assay was carried out flow cytometry.\nKB cells (5×10^5 cells/well) were seeded into six-well plates. […] Afterwards, cells were collected, washed twice with cold PBS. Then the treated cells were resuspended with 400 μL of 1X Annexin V binding buffer and mixed with 5 μL FITC and 5 μL PI (Annexin V-FITC Apoptosis Analysis Kit, Tianjing), and incubated at room temperature in the dark for 5 min. After the incubation, the samples were immediately analyzed by a Beckman Flow Cytometer."}},
  "data": [
    {"smiles": "O=CC=C(Cl)c1cc2ccc(OCc3ccccc3)cc2oc1=O", "note": "[Compound 6e, 3-(7-(Benzyloxy)-2-oxo-2H-chromen-3-yl)-3-chloroacrylaldehyde]", "values": [
      {"measurement": "IC50", "setting": "[1]", "value": "7.4 ± 0.2", "unit": "µM"},
      {"measurement": "IC50", "setting": "[2]; Homo sapiens, MTT, 72 h", "value": "0.39 ± 0.07", "unit": "µM"},
      {"measurement": "antiproliferative activity higher than 5-FU", "setting": "[2]; KB cells, relative to 5-FU", "value": 15, "unit": "fold"},
      {"measurement": "IC50 against KB cells lower than that of HUVECs (selectivity)", "setting": "[2]; KB vs HUVEC", "value": 65, "unit": "fold"},
      {"measurement": "IC50 against KB cells lower than that of LO2 cells (selectivity)", "setting": "[2]; KB vs LO2", "value": 129, "unit": "fold"},
      {"measurement": "IC50", "setting": "[3]", "value": "25.26 ± 0.2", "unit": "µM"},
      {"measurement": "number of migration cells reduced compared with the control group", "setting": "KB cells [4]", "value": "approximately 93%"},
      {"measurement": "apoptotic rate in the early stage (Q1-LR)", "setting": "KB cells [5]; 0.5 IC50, 48 h", "value": 6.99, "unit": "%"},
      {"measurement": "late apoptotic rate (Q1-UR)", "setting": "KB cells [5]; 0.5 IC50, 48 h", "value": 5.55, "unit": "%"},
      {"measurement": "total apoptosis rate", "setting": "KB cells [5]; 0.5 IC50, 48 h", "value": 12.54, "unit": "%"},
      {"measurement": "apoptotic rate in the early stage (Q1-LR)", "setting": "KB cells [5]; 2 IC50, 48 h", "value": 13.11, "unit": "%"},
      {"measurement": "late apoptotic rate (Q1-UR)", "setting": "KB cells [5]; 2 IC50, 48 h", "value": 7.22, "unit": "%"},
      {"measurement": "total apoptosis rate", "setting": "KB cells [5]; 2 IC50, 48 h", "value": 20.33, "unit": "%"},
      {"measurement": "apoptotic rate in the early stage (Q1-LR)", "setting": "KB cells [5]; IC50, 48 h", "value": 6.69, "unit": "%"},
      {"measurement": "late apoptotic rate (Q1-UR)", "setting": "KB cells [5]; IC50, 48 h", "value": 7.30, "unit": "%"},
      {"measurement": "total apoptosis rate", "setting": "KB cells [5]; IC50, 48 h", "value": 13.99, "unit": "%"}
    ]}
  ]
}
